Source: patent US7488791B2, “Mixture of peptides derived from E6 and/or E7 papillomavirus proteins and uses thereof” (priority 2001, dated 2009)

How the values were obtained:
[1] = tested on: E7-specific T lymphocyte lines; settings: Altmann et al.; cited from earlier work
[2] = tested on: DR7-restricted clone; settings: Strang et al.; cited from earlier work
[3] = tested on: CD4+ T lymphocytes; test: Proliferation assay ([3H]-thymidine incorporation) of PBMCs / cells from patients having bowenoid papulosis; type: cell-based, human; settings: patient, DR 1501, DRB5
Description: A suspension of cells (PBMCs, CD8+ cell-depleted PBMCs, T lymphocytes pre-enriched by a step of culturing in vitro with the peptides selected according to the invention, or cloned T lymphocytes) is cultured for 3 to 5 days in the presence of the selected peptides and, as needed, of suitable presenting cells, such as dendritic cells, autologous or heterologous PBMCs, lymphoblastoid cells such as those obtained after infection with the EBV virus or genetically modified cells. The cell proliferation is measured by incorporation of tritiated thymidine into the DNA of the cells. The peptides selected in accordance with the invention make it possible to reveal, in the initial suspension, the presence of cells specific for these peptides. • as regards the ELISPOT assay:
To verify the stimulation of CD4+ T cell proliferation using immunogenic composition according to the invention, a proliferation assay is performed in vitro.
The cells (PBMCs) extracted from peripheral blood were cultured in 96-well microplates in a proportion of 2×10^5 cells per well, in a final volume of 200 μl of complete medium. The cells were or were not stimulated with 10 μg/ml of a mixture of peptides according to the invention. […] The cells were recovered and the [^3H]-thymidine incorporation was measured in a cellular DNA. […]

[4] = tested on: cells from patients; settings: De Gruijl et al.; cited from earlier work

Compound	Recognition by T lymphocyte line or clone from a patient [1]	also measured
E7: 17-34: HPV16 E7 peptide, positions 17-34, Altmann et al. (PETTDLYCYEQLNDSSEE; UniProt P03129 17-34, looked up, fragment)	Recognized by line from a DR4	–
E6: 42-57: HPV16 E6 peptide, positions 42-57, Strang et al. (QQLLRREVYDFAFRDL; UniProt P03126 42-57, looked up, fragment)	–	Recognition by T cell clone [2]: Recognized by DR7-restricted
CC[C@H](C)[C@H](N)C(=O)N[C@@H](CCCNC(=N)N)C(=O)NCC(=O)N[C@@H](CCCNC(=N)N)C(=O)N[C@@H](Cc1c[nH]c2ccccc12)C(=O)N[C@H](C(=O)NCC(=O)N[C@@H](CCCNC(=N)N)C(=O)N[C@@H](CS)C(=O)N[C@@H](CCSC)C(=O)N[C@@H](CO)C(=O)N[C@@H](CS)C(=O)N[C@@H](CS)C(=O)N[C@@H](CCCNC(=N)N)C(=O)N[C@@H](CO)C(=O)N[C@@H](CO)C(=O)N[C@@H](CCCNC(=N)N)C(=O)N[C@H](C(=O)N[C@@H](CCCNC(=N)N)C(=O)N[C@@H](CCCNC(=N)N)C(=O)N[C@@H](CCC(=O)O)C(=O)N[C@H](C(=O)N[C@@H](CCC(N)=O)C(=O)N[C@@H](CC(C)C)C(=O)O)[C@@H](C)O)[C@@H](C)O)[C@@H](C)O [E6/10]	–	Prolif: peptide recognized, in terms of proliferation, by the CD4+ T lymphocytes [3]: weak
E7: 69-82: HPV16 E7 peptide, positions 69-82, Altmann et al. (VQSTHVDIRTLEDL; UniProt P03129 69-82, looked up, fragment)	Recognized by clone from a DR4	–
E7: 5-18: HPV16 E7 peptide, positions 5-18, Altmann et al. (TPTLHEYMLDLQPE; UniProt P03129 5-18, looked up, fragment)	Recognized by line from a DR1	–
E7: 43-80: HPV16 E7 peptide, positions 43-80, De Gruijl et al. (GQAEPDRAHYNIVTFCCKCDSTLRLCVQSTHVDIRTLE; UniProt P03129 43-80, looked up, fragment)	–	Proliferation of cells from patients infected with HPV, responders/tested [4]: 10/28
